According to patent publication US6468537B1, “Localization of major peptide autoepitopes for nucleosome specific T cells of systemic lupus erythematosus” (The Board of Trustees of Northwestern University, priority 1999, dated 2002):

Columns and labels:
[1] = test system: anti-DNA autoantibodies of lupus; conditions: cited from earlier work
[2] = test system: splenic T cells of pre-nephritic SNF1 mice; conditions: cited from earlier work
[3] = test system: B cells; test: Helper assay: B cells from peptide-injected mice co-cultured with CD4+ T cells from unmanipulated SNF1 mice; type: cell-based, mouse
Excerpt: (§1) Levels of IgG class autoantibodies specific for single-stranded DNA (ssDNA), double-stranded DNA (dsDNA), histones, and nucleosomes (i.e. histone-DNA complexes), in culture supernatants or serum, were estimated using an enzyme-linked immunosorbent assay (ELISA). Anti-DNA mAbs 564 and 205 were used to generate standard curves as previously described (Mohan et al., 1993, J. Exp. Med. 177:1367; Kaliyaperumal et al., 1996, J. Exp. Med. 183:2459; Mohan et al., 1995, J. Immunol. 154:1470; Adams et al., 1991, Proc. Natl. Acad. Sci. USA 88:11271). Sera were diluted 1:400 and heat-inactivated before use according to standard procedures. Sera from normal SWR mice were used as the negative control. Total polyclonal IgG levels were also measured by ELISA as previously described (Mohan et al., 1993, J. Exp. Med. 177:1367; Mohan et al., 1995, J. Immunol. 154:1470; Adams et al., 1991, Proc. Natl. Acad. Sci. USA 88:11271).
(§2) T-cells from peptide-treated mice used in the short-term experiments were co-cultured with splenic B cells from unmanipulated mice. Conversely, T cells from unmanipulated SNF1 mice (i.e. control mice) were co-cultured with splenic B cells from tolerized (i.e. peptide-injected) mice. Each of the cell types was seeded in 24-well plates at an initial concentration of 2.5×10^6 cells per well. Cultures were maintained for 7 days, as previously described (Datta et al., 1987, J. Exp. Med. 165:1252; Sainis and Datta, 1988, J. Immunol. 140:2215). B cells from unmanipulated or tolerized animals were cultured alone to measure baseline autoantibody production. Culture supernatants were collected, freeze-thawed, and assayed by ELISA for antibodies against ssDNA, dsDNA, histones and nucleosomes. For studies involving stimulation of B cells by soluble CD40 ligand, CD40L-CD8 fusion protein (Wortis et al., 1995, Proc. Natl. Acad. Sci. USA 92:3348) was added to either the co-culture wells or the wells with B cells alone and maintained in the medium for the entire 7-day culture period.

[4] = test system: SNF1 mice; test: Chronic therapy of established glomerulonephritis with nucleosomal peptides; type: in vivo, mouse; conditions: for survival: by 26 months age; for mice alive: two months after start of treatment (all controls dead), 300 micrograms i.p. monthly, 18-month old mice
Experimental: Six mice per group were injected intraperitoneally once each month with either a saline solution or a peptide solution comprising saline and 300 micrograms of one of the identified peptides. The endpoint of these experiments was the development of moribund state due to renal failure.

[5] = test system: HLA-DR; conditions: cited from earlier work
[6] = test system: SNF1 mice; test: Brief therapy with nucleosomal histone peptides (long-term experiments): incidence of severe nephritis; type: in vivo, mouse
Experimental: (§3) Long-term experiments used 12 week-old, autoimmune, but pre-nephritic SNF1 female mice. Nine mice per peptide test group were injected intravenously with either a saline (solution) or a peptide solution comprising saline and 300 micrograms of one of H2B10-33, H416-39, and H471-94. Each mouse received three subsequent injections of either the saline solution or one of the peptide solutions at two-week intervals. The mice were monitored weekly for proteinuria using an Albustix kit (VWR Scientific, Chicago, Ill.), and sacrificed upon the development of persistent proteinuria. Persistent protenuria was identified as an amount of protein in urine that is equivalent to or greater than 300 milligrams per deciliter, and is a primary indication of severe kidney disease and damage associated with nephritis. Sera were collected from each mouse and the IgG anti-nuclear autoantibodies determined. Blood urea nitrogen (BUN) was measured by Azostix (Miles, Ekhart, Ind.). Immune complex deposition and glomerulonephritis in the kidney were detected by staining with Hematoxylin and Eosin and anti-mouse Ig. These procedures were carried out as previously described (Mohan et al., 1993, J. Exp. Med. 177:1367; Mohan et al., 1995, J. Immunol. 154:1470; Eastcott et al., 1983, J. Immunol. 131:2232; Adams et al., 1991, Proc. Natl. Acad. Sci. USA 88:11271; Kalled et al., 1998, J. Immunol. 160:2158; Gaynor et al., 1997, Proc. Natl. Acad. Sci. USA 94:1955).

[7] = test system: SNF1 mice; test: IgG anti-nuclear autoantibody and total IgG levels in sera of peptide-injected mice (ELISA); type: in vivo, mouse; conditions: sera 1:400
Experimental: as §3, §1

[8] = test system: B cells; test: Stimulation of purified B cells from peptide-injected mice (anti-Ig (Fab')2, rIL-4, CD40L, LPS); type: cell-based, mouse
Excerpt: as §1, §2

[9] = test system: SNF1 mice; test: Short-term tolerance experiments: grading of lupus nephritis at sacrifice; type: in vivo, mouse; conditions: short-term batch, at sacrifice two weeks after last injection
Experimental: Short-term experiments were conducted to test the early immunological consequences of tolerance therapy. Twelve week old SNF1 mice were injected once a week for four weeks with either a saline solution or a peptide solution comprising saline and 300 micrograms of one of the above described peptides. Mice were sacrificed at two weeks after the last injection. Presence of autoimmune T and B cells was analyzed and renal lesions were graded.

[10] = test system: CD4+ T cells; test: Helper assay: CD4+ T cells from peptide-injected mice co-cultured with B cells from unmanipulated SNF1 mice; type: cell-based, mouse; conditions: for reduction of anti-ssDNA antibody production relative to control group / reduction of anti-dsDNA antibody production compared with control group: T cells from treated mice + B cells from unmanipulated mice; for reduction of anti-dsDNA antibody production compared with control group: 7 days; for increase in help for anti-dsDNA antibody production following addition of rIL-2: rIL-2 added at beginning of 7-day culture
Excerpt: as §1, §2

[11] = at 28 weeks of age, 300 micrograms i.v., four injections at two-week intervals from 12 weeks
[12] = at 36-38 weeks of age, control 88.8%
[13] = at 36 weeks of age, control 26±3.2
[14] = at the start of treatment (12 weeks), control 5.5±0.3
[15] = rIL-2 added, not significant relative to control

Substance	production of anti-nucleosome antibodies relative to control group [3]	survival [4]	mice alive [4]	binding to HLA-DR [5]	incidence of severe nephritis [6, 11]	incidence of severe nephritis [6, 12]	serum anti-dsDNA antibody level [7, 13]	serum anti-dsDNA antibody level [7, 14]	antibody production by B cells stimulated with anti-Ig (Fab')2 in presence or absence of rIL-4 [8]	reduction of anti-ssDNA antibody production relative to control group [10]	reduction of anti-dsDNA antibody production compared with control group [10]	increase in help for anti-dsDNA antibody production following addition of rIL-2 [10]	further results
H385-102: epitope in nucleosomal core histone H3, amino acid positions 85-102 (QSSAVMALQEACEAYLVG; UniProt P68431 86-103, looked up, fragment)													binding by anti-DNA autoantibodies [1]: also bound by spontaneously arising anti-DNA autoantibodies of lupus; response of splenic T cells [2]: spontaneously responded
H416-39: nucleosomal histone peptide of histone 4 protein (H4), amino acid positions 16-39	reduced by three fold	all of the H416-39 group mice remained alive	none of the mice in H416-39 group had died	have actually been shown to bind HLA-DR	did not develop disease	11.1%	13.0±4.0 units	9.0±2.1 units	did not respond by increasing antibody production	approximately 55%	approximately 50%	35%	ability of B cells to produce IgG autoantibodies in presence of T helper cells [3]: diminished levels of all autoantibodies; reduction of anti-histone antibody production relative to control group [3]: approximately 4 fold; level of anti-dsDNA antibodies produced by B cells ([3]; control 160±18.5): 45±10.1 units per deciliter; production of anti-ssDNA antibodies by B cells ([3]; control 170±10.9 units per deciliter): 60±7.9 units; animals exhibiting a reduction in proteinuria levels ([4]; during the course of the experiment): 66.6%; proteinuria level after reduction ([4]; reduced from 300-1000 milligrams per deciliter): less than 100 milligrams per deciliter; incidence of severe nephritis ([6]; at 54 weeks of age): 55.5%; antibody production by B cells with addition of CD40L and rIL-4 [8]: did not produce significant amounts of antibodies; Percent Incidence, Grading of Lupus Nephritis 0 [9]: 33.3; Percent Incidence, Grading of Lupus Nephritis 1+ [9]: 66.6; increase in anti-nucleosome antibodies following addition of rIL-2 [10, 15]: 20%; increase in anti-ssDNA antibodies following addition of rIL-2 [10, 15]: 30%
H471-94: histone 4 protein (H4) amino acids 71-94	remained significantly low	all of the H471-94 group mice had succumbed to renal disease	66.6%	have actually been shown to bind HLA-DR	33.3%	33.3%	17.1±2.7 units	5.4±1.1 units	could be stimulated to produce autoantibodies at levels similar to those of the control mice	not significant	approximately 50%	did not exhibit any increase	production of anti-histone antibodies relative to control group [3]: remained significantly low; Percent Incidence, Grading of Lupus Nephritis 2+ [9]: 66.6; Percent Incidence, Grading of Lupus Nephritis 3+ [9]: 33.3
